Test: Human HepG2 cell viability assay in 384 well format
Format: toxicity, cell-based
Set-up: dose 125 nL, time 70.5 hour; concentration not given beside the values
Conditions: HepG2 cells, read-out: Inhibition

| Structure (SMILES) | cytotoxicity at 70.5 h [%] |
| --- | --- |
| CCC(CO)N(Cc1cccs1)C(=O)Cc1ccncc1 (centres undefined) | -8.11 |
| CCc1ocnc1C(=O)N1CCOC(c2nc(C)n[nH]2)C1 (centres undefined) | -1.72 |
| CN(C)C(=O)CO[C@@H]1CC[C@H]2[C@H]1OCCN2c1ncc(F)cn1 | -6.35 |
| COCC[C@]1(O)CCN(C(=O)CCc2cnn(C)c2)C[C@H]1C | -7.34 |
| CCN1CCn2c(C)cnc2C12CCN(C(=O)c1cscn1)CC2 | 4.22 |
| O=C(NC[C@@H]1CCCO1)c1cccnc1N1CCCC1c1ccccc1 (some centres undefined) | -5.49 |
| CS(=O)(=O)Nc1ccn(Cc2cccc(F)c2)n1 | -6.83 |
| CCOCCCC(=O)NCCC(=O)N1CCN(c2ccccn2)CC1 | -13.4 |
| Fc1ccccc1Oc1nccnc1C1CCCN(C2CCOCC2)C1 (centres undefined) | -9 |
| Cn1nnc(C2(NC(=O)c3ccccc3)CCCC2)n1 | -8.79 |
| CN1CC(=O)N(c2cccnc2)Cc2c(NC3CC3)ncnc21 | -0.235 |
| COc1ccc(C(=O)C2CCCN(CCCn3cccn3)C2)c(OC)c1 (centres undefined) | 20.9 |
| COc1ccccc1C(O)CNC(=O)NCc1csc(C)n1 (centres undefined) | 1.19 |
| Cc1ccc(Sc2ccc(CN3CCC4(CC3)NCCNC4=O)o2)cc1 | 1.08 |
| COCC(=O)N1CCCCC1c1ccncn1 (centres undefined) | 10.7 |
| CCC1CN(Cc2nnc(C(C)C)o2)CCC(=O)N1Cc1ccccc1 (centres undefined) | -10.7 |
| CC1(CO)COC(Cc2ccc(Cl)cc2)=N1 (centres undefined) | 21 |
| O=C(Cn1nc2c(cc1=O)CCCC2)N[C@@H](C(=O)O)c1ccccc1 | -3.48 |
| O=C(NC1(C(=O)NCC2CC2)CCCC1)C1Cc2cc(F)ccc2O1 (centres undefined) | -4.27 |
| CCn1cc(CN2CCCC(c3[nH]ncc3-c3ccc(F)cc3)C2)cn1 (centres undefined) | -19.8 |
| CC1CCC(NS(=O)(=O)CC(=O)NC2(C(N)=O)CCCC2)CC1 (centres undefined) | -7.07 |
| CC(=O)N1CCC(Oc2cccc(C#N)c2)CC1 | 13.4 |
| CC(C)n1ccnc1CN1CCCC1c1cccc(-n2ccnc2)n1 (centres undefined) | -2.76 |

| Structure (SMILES) | cytotoxicity at 70.5 h [%] |
| --- | --- |
| Cc1nc(C)c(C(=O)N2CCCC(c3cnccn3)C2)s1 (centres undefined) | -2.44 |
| CN(C)CCN1C(=O)CCC12CCCN(C(=O)CC1CC1)CC2 (centres undefined) | 20.2 |
| CC(C)N(C)C(=O)C1=NOC2(CCN(C(=O)NCc3cccnc3)C2)C1 (centres undefined) | -9.91 |
| CC(C)NC(=O)c1n[nH]c(-n2cnnc2)n1 | -0.175 |
| Cc1n[nH]c(C2CN(CC(=O)NCc3sccc3C)CCO2)n1 (centres undefined) | -93.4 |
| N#Cc1cccc(CN2CCCC2Cn2cccn2)c1 (centres undefined) | -1.88 |
| Cc1cnc2n(c1=O)CC(C(=O)NC1CC1)CS2 (centres undefined) | 2.18 |
| CCc1cnc(CCNC(=O)N2CCCC(c3ncc[nH]3)C2)s1 (centres undefined) | 1.32 |
| CCCS(=O)(=O)N1CCn2cc(CNc3ccccn3)nc2C1 | -2.49 |
| COCCCNC(=O)CN1CCSC(c2ccccc2)C1 (centres undefined) | 3.9 |
| CCc1ncc(C(=O)N2CCCN(C3CCCC3)CC2)cn1 | -14.6 |
| CN1[C@H](CN2CCCC2)C[C@@H]2CN(C(=O)Cc3cccs3)CC[C@@H]21 | 27.9 |
| CCC(NCCn1cccn1)C(=O)Nc1cc(C)on1 (centres undefined) | 24.9 |
| CSC(C)C(=O)NCCC(=O)N1CCN(c2ccccn2)CC1 (centres undefined) | -3.28 |
| CCN1CCCC(C)(C(=O)NCc2nccn2Cc2ccccc2)C1 (centres undefined) | 0.597 |
| CCOc1ccccc1C(C(=O)O)N(C)Cc1nc(C)c[nH]1 (centres undefined) | -6.68 |
| CC(O)CN1CCN(C(=O)c2ccc(N(C)C)nc2)CC1 (centres undefined) | 12 |
| CS(=O)(=O)NCC1CCCCN1C(=O)c1ccc(Br)s1 (centres undefined) | -6.12 |
| Cn1cnc2ccc(NC(=O)CC3CCN(S(C)(=O)=O)CC3)cc21 | 12 |
| c1ccc2c(c1)N(CC1CCOC1)CC21CCN(c2cnccn2)CC1 (centres undefined) | -0.723 |
| NCc1cn(CC2CCCN(C(=O)NCCc3ccc(F)cc3)C2)nn1 (centres undefined) | 22.7 |
| CN(C(=O)c1ccccc1N(C)S(C)(=O)=O)c1ccc(C(C)(C)C)cc1 | 5.15 |
| CN1Cc2c(C(=O)NC3CCCCC3)ncn2-c2ccccc2S1(=O)=O | 2.35 |

| Structure (SMILES) | cytotoxicity at 70.5 h [%] |
| --- | --- |
| Cc1noc([C@H]2C[C@H]3OCC[C@H]3N(C3CCC3)C2)n1 | 24.7 |
| NC1(C(=O)N2CCC(c3cc(-c4ccccc4Cl)n[nH]3)CC2)CCC1 | 46.9 |
| Cc1nc(-c2ccccc2C)n(CC(=O)NC(C)C)n1 | 12.9 |
| FC(F)(F)c1ccc2nc([C@H]3CCN(C4CCOCC4)C3)[nH]c2c1 | -12.9 |
| O=C(NCCN1CCOCC1)c1ccc(-c2ccc(F)cc2)nc1O | -3.89 |
| Cc1ccc(CNC(=O)CCN2CCN(c3ccccn3)CC2)n1C | 21.9 |
| Cc1cc(C2CCCN2C(=O)CN2CCc3ccccc32)on1 (centres undefined) | -0.619 |
| COC(=O)c1cccc(S(=O)(=O)Nc2ncc(C)s2)c1 | 0.827 |
| CC(C)n1cc(CN2CCCN(C(=O)C3CCOC3)CC2)cn1 (centres undefined) | 19.9 |
| CCOCCC(=O)N1CCc2cccc(S(=O)(=O)N3CCOCC3)c2C1 | -9.19 |
| Cc1ccc(CN2CCOC3(CCN(C(=O)N4CCCC4)CC3)C2)cc1 | -2.45 |
| NC(=O)NC1CCN(Cc2ccc(Br)c(F)c2)CC1 | -5.43 |
| Cc1nn(C)c(N2CCOCC2)c1CN[C@@H]1c2ccccc2C[C@@H]1O | -0.734 |
| CCCC1CCCN(Cc2csc(-c3cnn(C)c3)n2)CC1 (centres undefined) | 14.1 |
| Cc1nc(N2CCCC2)nc(N2CCC(O)(C(=O)O)CC2)c1C | 23.8 |
| COC(=O)N1CCc2ccc(NC(=O)c3cn(C)nn3)cc2C1 | -4.27 |
| COc1ncccc1C(=O)N1CC(c2nc(-c3ccco3)no2)C1 | 15.9 |
| Cc1cc(CCC(=O)O)nc(C2CCCN2c2ccnc(C)n2)n1 (centres undefined) | -6.16 |
| CNc1cc(CCNC(=O)CC(C)C)nc(-c2ccccn2)n1 | -7.32 |
| CCN(CC)C(CNC(=O)CCc1nc(C(C)C)no1)c1ccco1 (centres undefined) | -2.56 |
| Cc1c(COc2ccccc2)cccc1NC(=O)N1CC[C@H](O)C1 | -1.47 |
| Cc1nn(C)c(C)c1NC(=O)CN1CCCC1c1noc(C(C)C)n1 (centres undefined) | -5 |
| Cc1nc(C)c(S(=O)(=O)NC(=O)c2ccoc2)s1 | -13 |

| Structure (SMILES) | cytotoxicity at 70.5 h [%] |
| --- | --- |
| COCC(NC(=O)NCc1sccc1C)c1ccco1 (centres undefined) | 1.36 |
| Cn1cc(CN2CCc3c(COCc4ccncc4)cncc3C2)cn1 | -6.18 |
| c1ccc(C[C@H]2[C@H](N3CCOCC3)CCN2Cc2cccnc2)cc1 | 2.51 |
| Cc1cc(C(=O)N2CCCC(n3cncn3)C2)no1 (centres undefined) | -0.711 |
| COC(=O)C(O)C1CCN(CCc2ccccn2)CC1 (centres undefined) | -1.57 |
| COc1ccc2c(C)c(C(=O)NCC3CN(S(C)(=O)=O)CCO3)oc2c1 (centres undefined) | 16.6 |
| COc1cccn(CC(=O)N(C)Cc2ccoc2)c1=O | 1.59 |
| COc1c(C2CCCN2CC(=O)Nc2nccs2)c(C)nn1C (centres undefined) | -2.85 |
| COc1ccc(C2(C(=O)N3C[C@@H](C(=O)O)[C@H](C(C)C)C3)CC2)cc1 | -6.04 |
| COc1ccc(C(=O)NC2CC2)c(OC2CCN(CCCSC)CC2)c1 | -1.03 |
| CN1CCN(C(=O)c2[nH]nnc2Nc2ccccc2F)CC1 | -14.3 |
| COCCN1CCN(CC(=O)NC2(C#N)CCCC2)CC1 | -8.93 |
| Cn1ccnc1CN1CCCN(C(=O)c2ccc3cc[nH]c3c2)CC1 | -7.08 |
| O=C1CCSCC(C(=O)N2CCCC2)N1 (centres undefined) | -2.31 |
| COc1c(CNCCNC(=O)c2ccccc2F)c(C)nn1C | -15.6 |
| Cc1ccc(CN2CCC3(CCCN3C(=O)C(C)C)CC2)o1 | 5 |
| CCc1nnc2n1CCN(C(=O)C(C)Oc1ccc(C#N)cc1)C2 (centres undefined) | -10.1 |
| Clc1ccc(C2NCCc3cc4c(cc32)OCCO4)cc1 (centres undefined) | 32.9 |
| Cc1ccc(C(CC(=O)O)NC(=O)CCc2cccs2)cc1 (centres undefined) | -1.09 |
| CCc1cc(C(=O)N2CCCC(c3cc(=O)nc4n3CCC4)C2)no1 (centres undefined) | -6.36 |
| Cc1ccc(CN2Cc3c(C(=O)N(C)C)nn(C)c3C2)s1 | -3.13 |
| CC(=O)NCC(=O)N1CCc2nc(C)nc(C)c2CC1 | 5.59 |
| CCN(CC)C(CNC(=O)c1cccnc1-n1cncn1)c1ccsc1 (centres undefined) | -7.63 |

| Structure (SMILES) | cytotoxicity at 70.5 h [%] |
| --- | --- |
| O=C(c1cc(Cn2ccc3ccccc32)[nH]n1)N1CCCCC1CO (centres undefined) | 10.4 |
| CCc1c(C)nc2n(c1=O)CC(C(=O)Nc1nccs1)CS2 (centres undefined) | 33.6 |
| N[C@@H]1c2ccccc2C2(CCN(c3cnc4ccccc4n3)CC2)[C@H]1O | -9.08 |
| O=C(CN1CCc2c(ncn2C2CC2)C1)NC1CCN(C2CC2)CC1 | 16.5 |
| COc1ccc(CCN2C(=O)O[C@@H]3CN(C)C[C@@H]32)cc1 | -10.7 |
| CN(Cc1cccc(C#N)c1)S(=O)(=O)N1CCOCC1 | -9.82 |
| COCCN1CCC2(CCN(Cc3cccs3)CC2)C1=O | 16.2 |
| CC(=O)c1ccc(N2CCCC(CO)(Cc3ccccc3C)C2)nc1 (centres undefined) | -3.1 |
| c1cncc(COCc2cncc3c2CCN(Cc2ccoc2)C3)c1 | -9.45 |
| Cn1ccc(C(=O)N2CCC(Cc3cnc4[nH]ccc4c3)C2)n1 (centres undefined) | -7.96 |
| O=C(CN(C1=NCCCC1)c1ccccc1)c1ccc2c(c1)OCCO2 | -16.3 |
| CC1CCN(C(=O)c2ccc(N(C)Cc3cnn(C)c3)nc2)CC1 | -7.81 |
| CC(NC(=O)Cn1ccc(=O)n(C)c1=O)c1cc(F)ccc1F (centres undefined) | -1.78 |
| CCc1nc(C)c(C(=O)N2CCCN(Cc3cnn(C)c3)CC2)s1 | -9 |
| CC(C)CCCC(C)NC(=O)c1ccc(OCC(N)=O)cc1 (centres undefined) | -6.3 |
| CCC(CC)CS(=O)(=O)NC(=O)C1CCC1 | -4.87 |
| CC(C)CNC(=O)Cn1cc(C(N)=O)c(-c2ccccc2)n1 | -8.01 |
| Cc1ccc(S(=O)(=O)N2CCC(S(=O)(=O)c3nncn3C)CC2)cc1C | -6.93 |
| CCc1nc(CN2CCCC(NCc3cc(C)no3)C2)no1 (centres undefined) | -8.45 |
| CCc1nc(C2CCCN2CC(=O)Nc2nncs2)no1 (centres undefined) | -2.48 |
| C1CC(CN2C[C@H]3CC[C@@H]2CN(Cc2nnc(C4CC4)o2)C3)C1 | -16.7 |
| Cc1cc(C)n(CC2CN(c3ccc(C#N)cn3)CCO2)n1 (centres undefined) | -3.22 |
